Data taken from patent US20090022712A1, “Compositions and Methods for Inhibiting Leukocyte Function” (UNIVERSITY OF VIRGINIA PATENT FOUNDATION, priority 2006, published 2009).
Where a SMILES comes first, the peptide text is derived from it.

Legend:
PMNs = assay: PMN oxidative burst (SOD-inhibitable reduction of cytochrome c); format: cell-based, human; settings: TNF-α-primed adherent PMNs; peptide 20 μg/ml, dhCB 1 μg/ml
Procedure: Oxidative burst of adherent PMNs was quantified by measuring the superoxide dismutase (SOD)-inhibitable reduction of cytochrome c as described (67). Briefly, PMNs (1.5×10^6/ml in HBSS-0.1% human serum albumin) were incubated in polypropylene tubes (1 hour; 37° C.) in a shaking water bath with or without the PAK peptide (20 μg/ml). PMNs were transferred to a fibrinogen-coated 96 well tissue culture plate. Cytochrome c (1.44 mg/ml) and catalase (0.062 mg/ml) (both Sigma) were added to wells with or without TNF-alpha (10 U/ml). Optical density was measured at indicated times against matched controls with SOD at 550 nm. Some PMNs were treated with dihydrocytochalasin B (dhCB) (1 μg/ml) to disrupt cell spreading on the surface (68). These samples served as negative control.

[1] = In vivo distribution of the PAK inhibitory peptide (flow cytometry); settings: for uptake of peptide by blood neutrophils: 12 hours before sample
Procedure: Six hours after injection, PAK-positive cells were identified by flow cytometry and their expression of CD31 and CD45 was determined. In additional experiments, mice inhaled LPS after an intraperitoneal injection of the fluorescent PAK peptide. Twelve hours later, PMNs were identified in blood, lungs, and BAL by their expression of CD45, GR-1, and 7/4 and investigated for their peptide uptake. In some experiments, lungs from these mice were fixed for confocal microscopy.

[2] = test system: LPS-induced PMN migration into the lung; assay: Murine model of acute lung injury: LPS-induced PMN trafficking in the lung; settings: application of the peptide in mice in vivo
Procedure: Wild type male C57B1/6 mice were obtained from Jackson Labs (Bar Harbor, Me.). […] Mice were eight to twelve weeks of age. Up to four mice were exposed to aerosolized LPS in a custom-built cylindrical chamber (20×9 cm) connected to an air nebulizer (MicroAir, Omron Healthcare, Vernon Hills, Ill.). […] Control mice were exposed to saline aerosol.
PMN recruitment into the different compartments of the lung pulmonary vasculature, interstitium, alveolar airspace) was assessed as described (81). […] After 5 minutes, mice were euthanized and non-adherent PMN were removed from the pulmonary vasculature by flushing 10 ml of PBS at 25 cm H20 through the spontaneously beating right ventricle. BAL was withdrawn and lungs were removed, minced, and digested in the presence of excess unlabeled anti-GR-1 to prevent possible binding of the injected antibody to extravascular PMN. A cell suspension was prepared by passing the digested lungs through a 70 μm cell strainer (BD Falcon, Bedford, Mass.). Total cells in BAL and lung were counted and percentage of PMNs determined by flow cytometry. […] In the lung, the expression of GR-1 was used to distinguish intravascular (CD45+7/4+GR-1^+) from interstitial (CD45+7/4+GR-1^−) PMNs, which were not reached by the injected antibody 82.

adaptor protein Nck = adaptor protein Nck (UniProt P16333); assay: cell-based or functional assay

C=C1[C@@H](C)[C@H]2[C@H](Cc3ccccc3)NC(=O)[C@]23OC(=O)CC[C@H](O)CCC[C@@H](C)C/C=C/[C@H]3[C@@H]1O [dihydrocytochalasin B]
adhesion-induced oxidative burst (superoxide production) (PMNs): reduced

CSCC[C@H](NC(=O)[C@@H](NC(=O)[C@H](CO)NC(=O)[C@@H](NC(=O)[C@H](CC(N)=O)NC(=O)[C@H](CCCNC(=N)N)NC(=O)[C@H](CCSC)NC(=O)[C@@H]1CCCN1C(=O)[C@@H]1CCCN1C(=O)[C@H](C)NC(=O)[C@@H]1CCCN1C(=O)[C@@H]1CCCN1C(=O)[C@H](CCCCN)NC(=O)CNC(=O)[C@H](CCCNC(=N)N)NC(=O)[C@H](CCCNC(=N)N)NC(=O)[C@H](CCCNC(=N)N)NC(=O)[C@H](CCC(N)=O)NC(=O)[C@H](CCCNC(=N)N)NC(=O)[C@H](CCCNC(=N)N)NC(=O)[C@H](CCCCN)NC(=O)[C@H](CCCCN)NC(=O)[C@H](CCCNC(=N)N)NC(=O)CNC(=O)[C@@H](N)Cc1ccc(O)cc1)[C@@H](C)O)[C@@H](C)O)C(=O)O [tat-PAK peptide] (H-YGRKKRRQRRRGKPPAPPMRNTSTM-OH; N-terminus and C-terminus assumed)
PMNs in the BAL containing peptide ([1]; i.v. 1 mg, 12 h, LPS): almost all neutrophils found in the BAL are non-fluorescent
PMNs in the lung containing peptide ([1]; i.v. 1 mg, 12 h, LPS): one-third
uptake of peptide by blood neutrophils ([1]; i.v. 1 mg): taken up by neutrophils
uptake of peptide by blood neutrophils ([1]; i.v. 1 mg, listed as PAK peptide): most PMNs are PAK peptide+
share of peptide-positive lung cells that are CD45 positive ([1]; intraperitoneal, six hours after injection, lung cell suspension): 80%
adverse side effects [2]: no apparent adverse side effects

tat-PAK peptide (inhibitory PAK peptide; first proline-rich domain of PAK fused to the HIV TAT transduction sequence)
F-actin content in CXCL1-stimulated human PMNs (flow cytometry) (adaptor protein Nck): 30 fold
